{"source": "patent US4994376A", "about": "“Detection of bacteroides gingivalis” (priority 1987, dated 1991)", "format_in_all_cases": "biochemical", "key": {"B. intermedius": {"test_system": "B. intermedius", "assay": "Aminopeptidase activity on β-naphthylamide substrates", "conditions": "strain ATCC 25611; β-naphthylamine liberated after 60 minutes, 37° C.", "summary_of_the_method": "(§1)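 Hydrolysis of N-CBz-glycyl-glycyl-L-arginine-β-naphthylamide over 1 h at 37 °C, then colour developed with Fast Garnet GBC (0.5 mg/ml) in 1M acetate pH 4.2 with 10% Tween 20 for 15 min at room temperature. Absorbance read at 525 nm against an enzyme-free control; activity given as nmol β-naphthylamine released in 60 min.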"}, "B. melaninogenicus": {"test_system": "B. melaninogenicus", "assay": "Aminopeptidase activity on β-naphthylamide substrates", "conditions": "strain ATCC 25845; β-naphthylamine liberated after 60 minutes, 37° C.", "summary_of_the_method": "as §1"}, "B. corporis": {"test_system": "B. corporis", "assay": "Aminopeptidase activity on β-naphthylamide substrates", "conditions": "strain ATCC 33547; β-naphthylamine liberated after 60 minutes, 37° C.", "summary_of_the_method": "as §1"}, "C. sputigena": {"test_system": "C. sputigena", "assay": "Aminopeptidase activity on β-naphthylamide substrates", "conditions": "strain ATCC 33123; β-naphthylamine liberated after 60 minutes, 37° C.", "summary_of_the_method": "as §1"}, "B. denticola": {"test_system": "B. denticola", "assay": "Aminopeptidase activity on β-naphthylamide substrates", "conditions": "strain ATCC 33185; β-naphthylamine liberated after 60 minutes, 37° C.", "summary_of_the_method": "as §1"}, "Fusobacterium nucleatum": {"test_system": "Fusobacterium nucleatum", "conditions": "β-naphthylamine liberated after 60 minutes, 37° C.", "summary_of_the_method": "(§2)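 Chromogenic assay using N-CBz-glycyl-glycyl-L-arginine-β-naphthylamide, incubated 1 hour at 37° C. Liberated β-naphthylamine is coupled with Fast Garnet GBC (0.5 mg/ml) in 1M acetic acid pH 4.2 with 10% Tween 20 for 15 min at room temperature, then read at 525 nm.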"}, "\"Anaerobic vibrio\"": {"test_system": "\"Anaerobic vibrio\"", "conditions": "strain SN2T2; β-naphthylamine liberated after 60 minutes, 37° C.", "summary_of_the_method": "as §2"}, "A. viscosus": {"test_system": "A. viscosus", "conditions": "β-naphthylamine liberated after 60 minutes, 37° C.", "summary_of_the_method": "as §2"}, "V. parvula": {"test_system": "V. parvula", "conditions": "strain ATCC 10790; β-naphthylamine liberated after 60 minutes, 37° C.", "summary_of_the_method": "as §2"}, "Campylobacter sputorum": {"test_system": "Campylobacter sputorum", "conditions": "strain Ba1-21; β-naphthylamine liberated after 60 minutes, 37° C.", "summary_of_the_method": "as §2"}, "Streptococcus mitis": {"test_system": "Streptococcus mitis", "conditions": "β-naphthylamine liberated after 60 minutes, 37° C.", "summary_of_the_method": "as §2"}, "Actinomyces israeli": {"test_system": "Actinomyces israeli", "conditions": "β-naphthylamine liberated after 60 minutes, 37° C.", "summary_of_the_method": "as §2"}, "A. seminis": {"test_system": "A. seminis", "conditions": "strain ATCC 15768; β-naphthylamine liberated after 60 minutes, 37° C.", "summary_of_the_method": "as §2"}, "Veillonella sp.": {"test_system": "Veillonella sp.", "conditions": "strain SE1M2; β-naphthylamine liberated after 60 minutes, 37° C.", "summary_of_the_method": "as §2"}, "S. sanguis": {"test_system": "S. sanguis", "conditions": "β-naphthylamine liberated after 60 minutes, 37° C.", "summary_of_the_method": "as §2"}, "S. mutans": {"test_system": "S. mutans", "conditions": "strain ATCC 25175; β-naphthylamine liberated after 60 minutes, 37° C.", "summary_of_the_method": "as §2"}, "[1]": {"test_system": "Actinobacillus actinomycetemcomitans", "conditions": "β-naphthylamine liberated after 60 minutes, 37° C.", "summary_of_the_method": "as §2"}, "Eikenella corrodens": {"test_system": "Eikenella corrodens", "conditions": "strain BP1-6; β-naphthylamine liberated after 60 minutes, 37° C.", "summary_of_the_method": "as §2"}, "A. suis": {"test_system": "A. suis", "assay": "Aminopeptidase activity on β-naphthylamide substrates", "conditions": "strain ATCC 15557; β-naphthylamine liberated after 60 minutes, 37° C.", "summary_of_the_method": "as §2"}, "S. salivarius": {"test_system": "S. salivarius", "assay": "Aminopeptidase activity on β-naphthylamide substrates", "conditions": "β-naphthylamine liberated after 60 minutes, 37° C.", "summary_of_the_method": "as §2"}, "A. equuli": {"test_system": "A. equuli", "assay": "Aminopeptidase activity on β-naphthylamide substrates", "conditions": "strain ATCC 19392; β-naphthylamine liberated after 60 minutes, 37° C.", "summary_of_the_method": "as §2"}, "Haemophilus aphrophilus": {"test_system": "Haemophilus aphrophilus", "assay": "Aminopeptidase activity on β-naphthylamide substrates", "conditions": "β-naphthylamine liberated after 60 minutes, 37° C.", "summary_of_the_method": "as §2"}, "L. fermentum": {"test_system": "L. fermentum", "assay": "Aminopeptidase activity on β-naphthylamide substrates", "conditions": "strain ATCC 11581; β-naphthylamine liberated after 60 minutes, 37° C.", "summary_of_the_method": "as §2"}, "Lactobacillus casei": {"test_system": "Lactobacillus casei", "assay": "Aminopeptidase activity on β-naphthylamide substrates", "conditions": "β-naphthylamine liberated after 60 minutes, 37° C.", "summary_of_the_method": "as §2"}, "F. periodonticum": {"test_system": "F. periodonticum", "assay": "Aminopeptidase activity on β-naphthylamide substrates", "conditions": "strain EK1-15; β-naphthylamine liberated after 60 minutes, 37° C.", "summary_of_the_method": "as §2"}, "B. levii": {"test_system": "B. levii", "conditions": "β-naphthylamine liberated after 60 minutes, 37° C.", "summary_of_the_method": "as §1"}, "Bacteroides gingivalis": {"test_system": "Bacteroides gingivalis", "conditions": "β-naphthylamine liberated after 60 minutes, 37° C.", "summary_of_the_method": "as §1"}, "B. loescheii": {"test_system": "B. loescheii", "conditions": "β-naphthylamine liberated after 60 minutes, 37° C.", "summary_of_the_method": "as §1"}}, "note": "Read-outs that look alike come from different tables or passages of the source."}
{"smiles": "CSCCC(N)C(=O)Nc1ccc2ccccc2c1", "note": "(racemic)", "values": [{"measurement": "Aminopeptidase activity", "setting": "B. intermedius", "value": 0, "unit": "nmol"}, {"measurement": "Aminopeptidase activity", "setting": "B. melaninogenicus", "value": 1, "unit": "nmol"}, {"measurement": "Aminopeptidase activity", "setting": "B. corporis", "value": 0, "unit": "nmol"}, {"measurement": "Aminopeptidase activity", "setting": "C. sputigena", "value": 117, "unit": "nmol"}, {"measurement": "Aminopeptidase activity", "setting": "B. denticola", "value": 0, "unit": "nmol"}, {"measurement": "Aminopeptidase activity", "setting": "Fusobacterium nucleatum; strain 2", "value": 1, "unit": "nmol"}, {"measurement": "Aminopeptidase activity", "setting": "Fusobacterium nucleatum; strain ATCC 25586", "value": 0, "unit": "nmol"}, {"measurement": "Aminopeptidase activity", "setting": "Fusobacterium nucleatum; strain D31A-24", "value": 0, "unit": "nmol"}, {"measurement": "Aminopeptidase activity", "setting": "\"Anaerobic vibrio\"", "value": 0, "unit": "nmol"}, {"measurement": "Aminopeptidase activity", "setting": "A. viscosus; strain ATCC 19246", "value": 9, "unit": "nmol"}, {"measurement": "Aminopeptidase activity", "setting": "A. viscosus; strain T14V", "value": 7, "unit": "nmol"}, {"measurement": "Aminopeptidase activity", "setting": "V. parvula", "value": 0, "unit": "nmol"}, {"measurement": "Aminopeptidase activity", "setting": "Campylobacter sputorum", "value": 0, "unit": "nmol"}, {"measurement": "Aminopeptidase activity", "setting": "Streptococcus mitis; strain ATCC 9815", "value": 52, "unit": "nmol"}, {"measurement": "Aminopeptidase activity", "setting": "Streptococcus mitis; strain ATCC 15909", "value": 12, "unit": "nmol"}, {"measurement": "Aminopeptidase activity", "setting": "Streptococcus mitis; strain ATCC 15911", "value": 13, "unit": "nmol"}, {"measurement": "Aminopeptidase activity", "setting": "Streptococcus mitis; strain ATCC 15912", "value": 17, "unit": "nmol"}, {"measurement": "Aminopeptidase activity", "setting": "Actinomyces israeli; strain ATCC 12103", "value": 12, "unit": "nmol"}, {"measurement": "Aminopeptidase activity", "setting": "Actinomyces israeli; strain DK2-3", "value": 33, "unit": "nmol"}, {"measurement": "Aminopeptidase activity", "setting": "A. seminis", "value": 0, "unit": "nmol"}, {"measurement": "Aminopeptidase activity", "setting": "Veillonella sp.", "value": 0, "unit": "nmol"}, {"measurement": "Aminopeptidase activity", "setting": "S. sanguis; strain ATCC 10556", "value": 23, "unit": "nmol"}, {"measurement": "Aminopeptidase activity", "setting": "S. sanguis; strain ATCC 10557", "value": 18, "unit": "nmol"}, {"measurement": "Aminopeptidase activity", "setting": "S. mutans", "value": 5, "unit": "nmol"}, {"measurement": "Aminopeptidase activity", "setting": "[1]; strain 67", "value": 0, "unit": "nmol"}, {"measurement": "Aminopeptidase activity", "setting": "[1]; strain 75", "value": 0, "unit": "nmol"}, {"measurement": "Aminopeptidase activity", "setting": "[1]; strain ATCC 29523", "value": 1, "unit": "nmol"}, {"measurement": "Aminopeptidase activity", "setting": "[1]; strain NCTC 9709", "value": 0, "unit": "nmol"}, {"measurement": "Aminopeptidase activity", "setting": "[1]; strain Y4", "value": 0, "unit": "nmol"}, {"measurement": "Aminopeptidase activity", "setting": "Eikenella corrodens", "value": 3, "unit": "nmol"}, {"measurement": "Aminopeptidase activity", "setting": "A. suis", "value": 0, "unit": "nmol"}, {"measurement": "Aminopeptidase activity", "setting": "S. salivarius; strain ATCC 9759", "value": 5, "unit": "nmol"}, {"measurement": "Aminopeptidase activity", "setting": "S. salivarius; strain ATCC 25975", "value": 1, "unit": "nmol"}, {"measurement": "Aminopeptidase activity", "setting": "A. equuli", "value": 0, "unit": "nmol"}, {"measurement": "Aminopeptidase activity", "setting": "Haemophilus aphrophilus; strain ATCC 13252", "value": 0, "unit": "nmol"}, {"measurement": "Aminopeptidase activity", "setting": "Haemophilus aphrophilus; strain ATCC 19415", "value": 0, "unit": "nmol"}, {"measurement": "Aminopeptidase activity", "setting": "Haemophilus aphrophilus; strain NCTC 5908", "value": 0, "unit": "nmol"}, {"measurement": "Aminopeptidase activity", "setting": "L. fermentum", "value": 6, "unit": "nmol"}, {"measurement": "Aminopeptidase activity", "setting": "Lactobacillus casei; strain ATCC 7469", "value": 1, "unit": "nmol"}, {"measurement": "Aminopeptidase activity", "setting": "Lactobacillus casei; strain ATCC 11578", "value": 9, "unit": "nmol"}, {"measurement": "Aminopeptidase activity", "setting": "Lactobacillus casei; strain ATCC 11582", "value": 9, "unit": "nmol"}, {"measurement": "Aminopeptidase activity", "setting": "F. periodonticum", "value": 0, "unit": "nmol"}, {"measurement": "Aminopeptidase activity", "setting": "B. levii; strain 18-1-5", "value": 0, "unit": "nmol"}, {"measurement": "Aminopeptidase activity", "setting": "B. levii; strain 18-1-8", "value": 1, "unit": "nmol"}, {"measurement": "Aminopeptidase activity", "setting": "Bacteroides gingivalis; strain 9-14K-1", "value": 0, "unit": "nmol"}, {"measurement": "Aminopeptidase activity", "setting": "Bacteroides gingivalis; strain 11-1-2", "value": 0, "unit": "nmol"}, {"measurement": "Aminopeptidase activity", "setting": "Bacteroides gingivalis; strain 381", "value": 0, "unit": "nmol"}, {"measurement": "Aminopeptidase activity", "setting": "Bacteroides gingivalis; strain 1021", "value": 0, "unit": "nmol"}, {"measurement": "Aminopeptidase activity", "setting": "Bacteroides gingivalis; strain ATCC 33277", "value": 0, "unit": "nmol"}, {"measurement": "Aminopeptidase activity", "setting": "Bacteroides gingivalis; strain FAYE 19m-1", "value": 0, "unit": "nmol"}, {"measurement": "Aminopeptidase activity", "setting": "B. loescheii; strain ATCC 15930", "value": 0, "unit": "nmol"}, {"measurement": "Aminopeptidase activity", "setting": "B. loescheii; strain VPI4196", "value": 0, "unit": "nmol"}]}
